In patent publication US20250332173A1, “COMPOUNDS AND METHODS FOR MODULATING NUCLEIC ACID SPLICING” (REMIX THERAPEUTICS INC., priority 2021, published 2025):
Like-named read-outs stand apart in the source and are kept apart here.

What was measured:
[1] = test system: HTT mRNA; experiment: RT-qPCR splicing assay, HTT canonical junction (CJ) and alternative junction (AJ) mRNA; type: cell-based, human; conditions: Homo sapiens; for AC50: increase in HTT alternative junction (AJ) mRNA, read-out: HTT AJ AC50
In short: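 Following a 24-hour incubation of A673 or K562 cells with serially diluted compound (3-fold steps, highest final 10 uM), the lysates undergo cDNA synthesis plus qPCR. Canonical and alternative junctions are each quantified against PPIA, GAPDH or GUSB.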

[2] = test system: MYB; experiment: HiBiT protein abundance assay, MYB HiBiT K562 cell line; type: cell-based, human; conditions: HiBiT K562 cell line, 24 hours, top dose 10 μM; read-out: Effect on protein abundance, MYB (IC50 category)
In short: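 Endogenous targets in K562 knock-in lines carried a HiBiT tag and were treated for 24 h at 37 °C with 10-point 3-fold dilutions (top 10 μM final, DMSO ≤0.25%). Abundance was read as lytic Nano-Glo HiBiT luminescence. IC50 came from a four-parameter logistic fit of normalized response.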

[3] = test system: K562 (human chronic myelogenous leukemia) cells; experiment: Cell Titer Glo 2.0 cell viability assay; type: cell-based; conditions: Homo sapiens, K562, 72 h, K562 cells, 72 hours, Cell Titer Glo 2.0; read-out: K562 GI50
[4] = decrease in HTT canonical junction (CJ) mRNA, RT-qPCR, read-out: HTT CJ IC50
[5] = Table 5 panel, canonical junction qPCR, compound concentration having 50% response in CJ decrease, read-out: HTT IC50 (decrease in CJ mRNA levels)

Row | Compound | IC50 [1, 4] [µM] | AC50 ([1]; RT-qPCR) [µM] | IC50 [1, 5] [µM] | IC50 [2] [µM] | GI50 [3] [µM]
1 | Cc1cn2nc(-c3cc(C)c4c(=O)n(C5CCNC6(CC6)C5)ccc4c3)cc(C)c2n1 (stereo in doubt) [Compound 398, (R)-6-(2,8-dimethylimidazo[1,2-b]pyridazin-6-yl)-8-methyl-2-(4-azaspiro[2.5]octan-7-yl)isoquinolin-1(2H)-one] | < 0.1 | < 0.1 | < 0.1 | < 0.1 | < 0.1
2 | Cc1cn2nc(-c3ccc4c(=O)n(C5CCCNC5)ccc4c3)cc(C)c2n1 (stereo in doubt) [Compound 410, 6-{2,8-dimethylimidazo[1,2-b]pyridazin-6-yl}-2-[(3S)-piperidin-3-yl]isoquinolin-1-one] | 1 to 10 | 1 to 10 | 1 to 10 | 0.1 to 1 | 1 to 10
3 | Cc1cn2nc(-c3ccc4c(=O)n(C5CCCNC5)ccc4c3)cc(C)c2n1 (stereo in doubt) [Compound 411, 6-{2,8-dimethylimidazo[1,2-b]pyridazin-6-yl}-2-[(3R)-piperidin-3-yl]isoquinolin-1-one] | 1 to 10 | 1 to 10 | 1 to 10 | 1 to 10 | 1 to 10
4 | Cc1cn2cc(-c3cc(F)c4c(=O)n(C5CCOC5)cnc4c3)cc(C#N)c2n1 (stereo in doubt) [Compound 499, (R)-6-(5-fluoro-4-oxo-3-(tetrahydrofuran-3-yl)-3,4-dihydroquinazolin-7-yl)-2-methylimidazo[1,2-a]pyridine-8-carbonitrile] | 0.1 to 1 | 0.1 to 1 | 0.1 to 1 | 0.1 to 1 | 0.1 to 1
5 | Cc1cn2cc(-c3cc(F)c4c(=O)n(C5CCOC5)cnc4c3)cc(C#N)c2n1 (stereo in doubt) [Compound 500, (S)-6-(5-fluoro-4-oxo-3-(tetrahydrofuran-3-yl)-3,4-dihydroquinazolin-7-yl)-2-methylimidazo[1,2-a]pyridine-8-carbonitrile] | 0.1 to 1 | 0.1 to 1 | 0.1 to 1 | 0.1 to 1 | 0.1 to 1
6 | Cn1cc2cc(-n3cnc4cc(C5=CC6CCC(C5)N6)ccc4c3=O)ccc2n1 (stereo not drawn) [Compound 160] | > 10 | > 10 | > 10 | > 10 | > 10
7 | CN1C2C=C(c3ccc4c(=O)n(-c5ccc6nn(C)cc6c5)cnc4c3)CC1CC2 (stereo not drawn) [Compound 161] | > 10 | > 10 | > 10 | > 10 | > 10
8 | CN1CCC(Nc2ccc3c(=O)n(-c4ccc5nn(C)cc5c4)cnc3c2)CC1 [Compound 163] | > 10 | > 10 | > 10 | > 10 | > 10
9 | Cn1cc2cc(-n3cnc4cc(C5CCNCC5)ccc4c3=O)ccc2n1 [Compound 172] | > 10 | > 10 | > 10 | > 10 | 1 to 10
10 | Cc1cc(-c2ccc3c(=O)n(C4CCN(C)CC4)cnc3n2)cc2cn(C)nc12 [Compound 173] | > 10 | > 10 | > 10 | > 10 | 1 to 10
11 | Cc1cc(-c2ccc3c(=O)n(C4CCNCC4)cnc3c2)cc2cn(C)nc12 [Compound 174] | 0.1 to 1 | 0.1 to 1 | 0.1 to 1 | < 0.1 | 0.1 to 1
12 | Cc1cn2cc(-c3cc(N)c4c(=O)n(C5CCNCC5)cnc4c3)cc(C#N)c2n1 [Compound 364, 6-[5-amino-4-oxo-3-(piperidin-4-yl)quinazolin-7-yl]-2-methylimidazo[1,2-a]pyridine-8-carbonitrile] | > 10 | > 10 | > 10 | > 10 | > 10
13 | Cn1cc2c(n1)CCN(c1cc(F)c3c(=O)n(C4CCNCC4)cnc3c1)C2 [Compound 365, 5-fluoro-7-(2-methyl-2,4,6,7-tetrahydro-5H-pyrazolo[4,3-c]pyridin-5-yl)-3-(piperidin-4-yl)quinazolin-4(3H)-one] | > 10 | > 10 | > 10 | 1 to 10 | > 10
14 | Cc1cn2cc(-c3cc(F)c4c(=O)n(C5CCOC5)cnc4c3)cc(C#N)c2n1 (stereo not drawn) [Compound 366, 6-[5-fluoro-4-oxo-3-(oxolan-3-yl)quinazolin-7-yl]-2-methylimidazo[1,2-a]pyridine-8-carbonitrile] | 1 to 10 | 1 to 10 | 1 to 10 | 1 to 10 | 1 to 10
15 | Cc1cn2cc(-c3cc(F)c4c(=O)n(C5CCOCC5)cnc4c3)cc(C#N)c2n1 [Compound 367, 6-[5-fluoro-3-(oxan-4-yl)-4-oxoquinazolin-7-yl]-2-methylimidazo[1,2-a]pyridine-8-carbonitrile] | 0.1 to 1 | 0.1 to 1 | 0.1 to 1 | 0.1 to 1 | 0.1 to 1
16 | Cc1cn2nc(-c3ccc4c(=O)n([C@H]5CCNC6(CC6)C5)ncc4c3)cc(C)c2n1 [Compound 369, 2-[(7S)-4-azaspiro[2.5]octan-7-yl]-6-{2,8-dimethylimidazo[1,2-b]pyridazin-6-yl}phthalazin-1-one] | < 0.1 | < 0.1 | < 0.1 | 1 to 10 | 1 to 10
17 | Cc1cn2cc(-c3cc(F)c4c(=O)n(C5CCNCC5)ccc4c3)cc(F)c2n1 [Compound 370] | < 0.1 | < 0.1 | < 0.1 | < 0.1 | < 0.1
18 | Cc1cn2nc(-c3ccc4c(=O)n([C@H]5CCNC[C@H]5F)cnc4c3)cc(C)c2n1 [Compound 372] | 0.1 to 1 | 0.1 to 1 | 0.1 to 1 | 0.1 to 1 | 1 to 10
19 | Cc1cc(-c2ccc3c(=O)n(C4CCNC5(COC5)C4)cnc3c2)cc2cn(C)nc12 (stereo not drawn) [Compound 375] | 1 to 10 | 1 to 10 | 1 to 10 | 1 to 10 | 1 to 10
20 | Cc1cc(-c2ccc3c(=O)n([C@@H]4CCNC[C@H]4F)ncc3c2)cc2cn(C)nc12 [Compound 378] | 1 to 10 | 1 to 10 | 1 to 10 | 1 to 10 | 1 to 10
21 | Cc1cn2nc(-c3ccc4c(=O)n([C@@H]5CCNC[C@H]5F)ncc4c3)cc(C)c2n1 [Compound 379] | 0.1 to 1 | 0.1 to 1 | 0.1 to 1 | 0.1 to 1 | 1 to 10
22 | Cc1cn2nc(-c3cc(F)c4c(=O)n(C5CCNC6(CC6)C5)ccc4c3)cc(C)c2n1 (stereo not drawn) [Compound 380, 6-(2,8-dimethylimidazo[1,2-b]pyridazin-6-yl)-8-fluoro-2-(4-azaspiro[2.5]octan-7-yl)isoquinolin-1(2H)-one] | < 0.1 | < 0.1 | < 0.1 | < 0.1 | 0.1 to 1
23 | Cc1cn2nc(-c3ccc4c(=O)n(C5CCNCC5)cc(C)c4c3)cc(C)c2n1 [Compound 381, 6-{2,8-dimethylimidazo[1,2-b]pyridazin-6-yl}-4-methyl-2-(piperidin-4-yl)isoquinolin-1-one] | 0.1 to 1 | < 0.1 | < 0.1 | < 0.1 | 0.1 to 1
24 | Cc1cn2cc(-c3cc(F)c4c(=O)n(C5CCNCC5)ccc4c3)cc(C#N)c2n1 [Compound 383, 6-[8-fluoro-1-oxo-2-(piperidin-4-yl)isoquinolin-6-yl]-2-methylimidazo[1,2-a]pyridine-8-carbonitrile] | 1 to 10 | 0.1 to 1 | 0.1 to 1 | < 0.1 | 0.1 to 1
